# Test results: patent US8431593B2, “Heteroaryl amide derivatives” (H. Lundbeck A/S, priority 2006, dated 2013)
# Target: T1, P2X7 receptor (Homo sapiens, UniProt Q99572)
# T1 construct: host or cells: SH-SY5Y
# T1 sequence (Q99572 1-595): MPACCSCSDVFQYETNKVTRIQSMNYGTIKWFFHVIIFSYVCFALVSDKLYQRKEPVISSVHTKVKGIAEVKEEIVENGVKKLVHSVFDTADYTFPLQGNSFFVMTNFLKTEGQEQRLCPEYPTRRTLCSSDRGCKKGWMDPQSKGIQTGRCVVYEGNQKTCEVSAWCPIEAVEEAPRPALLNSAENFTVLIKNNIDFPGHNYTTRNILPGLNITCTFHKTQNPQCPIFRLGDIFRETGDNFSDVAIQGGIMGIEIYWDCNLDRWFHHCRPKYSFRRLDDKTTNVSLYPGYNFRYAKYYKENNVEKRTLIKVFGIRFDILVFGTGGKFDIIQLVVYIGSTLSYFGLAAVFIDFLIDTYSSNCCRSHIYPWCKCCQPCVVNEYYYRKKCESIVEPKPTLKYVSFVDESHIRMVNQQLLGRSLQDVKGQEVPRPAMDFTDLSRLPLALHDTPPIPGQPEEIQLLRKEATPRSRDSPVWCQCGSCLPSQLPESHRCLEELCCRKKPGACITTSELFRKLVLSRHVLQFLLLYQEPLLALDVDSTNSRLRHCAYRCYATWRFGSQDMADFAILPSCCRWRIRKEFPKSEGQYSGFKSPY
# Test: P2X7 calcium mobilization assay, high throughput, antagonist activity (Example 4A)
# Assay type: cell-based
# Conditions: 50% decrease in the fluorescence response of cells exposed to 80 μM of 2′(3′)-O-(4-benzoyl-benzoyl)adenosine 5′-triphosphate; determined as in Example 4A; read-out: IC50
# Procedure, shortened: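 FLIPR^TETRA calcium read-out: maximum RFU per well minus average no-agonist control, with agonist wells giving the average positive maximum. Cells seeded at 100,000/well one day ahead, dye-loaded 1 h, rinsed, then exposed to compound for 1 h at room temperature.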
row,SMILES,IC50 [nM]
1,"O=C(Cc1cn2c(C(=O)NCC3(c4ccc(Cl)cc4)CCCCC3)cccc2n1)NCC1CC1 [Compound 862, N-{[1-(4-chlorophenyl)cyclohexyl]methyl}-2-{2-[(cyclopropylmethyl)amino]-2-oxoethyl} imidazo[1,2-a] pyridine-5-carboxamide]",< 2000
2,"CC(O)CNC(=O)Cc1cn2c(C(=O)NCC3(c4ccc(C(F)(F)F)cc4)CCCCC3)cccc2n1 (stereo not drawn) [Compound 864, 2-{2-[(2-hydroxypropyl)amino]-2-oxoethyl}-N-({1-[4-(trifluoromethyl)phenyl]cyclohexyl}methyl) imidazo[1,2-a] pyridine-5-carboxamide]",< 2000
3,"O=C(Cc1cn2c(C(=O)NCC3(c4cccnc4)CCCCC3)cccc2n1)NC1CCCC1 [Compound 865, 2-[2-(cyclopentylamino)-2-oxoethyl]-N-[(1-pyridin-3-ylcyclohexyl)methyl] imidazo[1,2-a] pyridine-5-carboxamide]",< 2000
4,"O=C(Cc1cn2c(C(=O)NCC3(c4ccc(Cl)cc4)CCCCC3)cccc2n1)NC1CCCC1 [Compound 866, N-{[1-(4-chlorophenyl)cyclohexyl]methyl}-2-[2-(cyclopentylamino)-2-oxoethyl]imidazo [1,2-a]pyridine-5-carboxamide]",< 2000
5,"CCC(C)NC(=O)Cc1cn2c(C(=O)NCC3(c4ccc(C(F)(F)F)cc4)CCCCC3)cccc2n1 (stereo not drawn) [Compound 868, 2-[2-(sec-butylamino)-2-oxoethyl]-N-({1-[4-(trifluoromethyl)phenyl]cyclohexyl}methyl) imidazo[1,2-a] pyridine-5-carboxamide]",< 2000
6,"CCC(C)NC(=O)Cc1cn2c(C(=O)NCC3(c4cccnc4)CCCCC3)cccc2n1 (stereo not drawn) [Compound 869, 2-[2-(sec-butylamino)-2-oxoethyl]-N-[(1-pyridin-3-ylcyclohexyl)methyl] imidazo[1,2-a] pyridine-5-carboxamide]",< 2000
7,"CCC(C)NC(=O)Cc1cn2c(C(=O)NCC3(c4ccc(Cl)cc4)CCCCC3)cccc2n1 (stereo not drawn) [Compound 870, 2-[2-(sec-butylamino)-2-oxoethyl]-N-{[1-(4-chlorophenyl)cyclohexyl]methyl}imidazo [1,2-a]pyridine-5-carboxamide]",< 2000
8,"CC(C)(C)CCNC(=O)Cc1cn2c(C(=O)NCC3(c4ccc(Cl)cc4)CCCCC3)cccc2n1 [Compound 871, N-{[1-(4-chlorophenyl)cyclohexyl]methyl}-2-{2-[(3,3-dimethylbutyl)amino]-2-oxoethyl} imidazo[1,2-a] pyridine-5-carboxamide]",< 2000
9,"O=C(Cc1cn2c(C(=O)NCC3(c4ccc(Cl)cc4)CCOCC3)cccc2n1)NCC(F)(F)F [Compound 872, N-{[4-(4-chlorophenyl)tetrahydro-2H-pyran-4-yl]methyl}-2-{2-oxo-2-[(2,2,2-trifluoroethyl)amino]ethyl}imidazo [1,2-a]pyridine-5-carboxamide]",< 2000
10,"O=C(Cc1cn2c(C(=O)NCC3(c4ccc(C(F)(F)F)cc4)CCCCC3)cccc2n1)NCC(F)(F)F [Compound 873, 2-{2-oxo-2-[(2,2,2-trifluoroethyl)amino]ethyl}-N-({1-[4-(trifluoromethyl)phenyl]cyclohexyl}methyl) imidazo[1,2-a] pyridine-5-carboxamide]",< 2000
11,"O=C(Cc1cn2c(C(=O)NCC3(c4cccnc4)CCCCC3)cccc2n1)NCC(F)(F)F [Compound 874, 2-{2-oxo-2-[(2,2,2-trifluoroethyl)amino]ethyl}-N-[(1-pyridin-3-ylcyclohexyl)methyl] imidazo[1,2-a] pyridine-5-carboxamide]",< 2000
12,"O=C(Cc1cn2c(C(=O)NCC3(c4ccc(Cl)cc4)CCCCC3)cccc2n1)NCC(F)(F)F [Compound 875, N-{[1-(4-chlorophenyl)cyclohexyl]methyl}-2-{2-oxo-2-[(2,2,2-trifluoroethyl)amino]ethyl} imidazo[1,2-a] pyridine-5-carboxamide]",< 2000
13,"O=C(Cc1cn2c(C(=O)NCC3(c4ccc(C(F)(F)F)cc4)CCCCC3)cccc2n1)NC1CCCC1 [Compound 877, 2-[2-(cyclopentylamino)-2-oxoethyl]-N-({1-[4-(trifluoromethyl)phenyl]cyclohexyl}methyl) imidazo[1,2-a] pyridine-5-carboxamide]",< 2000
14,"O=C(NCC1(c2ccc(C(F)(F)F)cc2)CCCCC1)c1cccc2nc(CC(=O)N3CCn4cncc4C3)cn12 [Compound 879, 2-[2-(5,6-dihydroimidazo[1,5-a]pyrazin-7(8H)-yl)-2-oxoethyl]-N-({1-[4-(trifluoromethyl)phenyl]cyclohexyl}methyl) imidazo[1,2-a] pyridine-5-carboxamide]",< 2000
15,"O=C(NCC1(c2ccc(Cl)cc2)CCCCC1)c1cccc2nc(CC(=O)N3CCn4cncc4C3)cn12 [Compound 881, N-{[1-(4-chlorophenyl)cyclohexyl]methyl}-2-[2-(5,6-dihydroimidazo[1,5-a]pyrazin-7(8H)-yl)-2-oxoethyl]imidazo[1,2-a]pyridine-5-carboxamide]",< 2000
16,"CC(C)(C)CCNC(=O)Cc1cn2c(C(=O)NCC3(c4ccc(Cl)cc4)CCOCC3)cccc2n1 [Compound 882, N-{[4-(4-chlorophenyl)tetrahydro-2H-pyran-4-yl]methyl}-2-{2-[(3,3-dimethylbutyl)amino]-2-oxoethyl}imidazo[1,2-a]pyridine-5-carboxamide]",< 2000
17,"CC(C)(C)CCNC(=O)Cc1cn2c(C(=O)NCC3(c4ccc(C(F)(F)F)cc4)CCCCC3)cccc2n1 [Compound 883, 2-{2-[(3,3-dimethylbutyl)amino]-2-oxoethyl}-N-({1-[4-(trifluoromethyl)phenyl]cyclohexyl}methyl) imidazo[1,2-a] pyridine-5-carboxamide]",< 2000
18,"CC(C)(C)CCNC(=O)Cc1cn2c(C(=O)NCC3(c4cccnc4)CCCCC3)cccc2n1 [Compound 884, 2-{2-[(3,3-dimethylbutyl)amino]-2-oxoethyl}-N-[(1-pyridin-3-ylcyclohexyl)methyl] imidazo[1,2-a] pyridine-5-carboxamide]",< 2000
19,"CC(C)N1CCN(C(=O)Cc2cn3c(C(=O)NCC4(c5ccc(C(F)(F)F)cc5)CCCCC4)cccc3n2)CC1 [Compound 885, 2-[2-(4-isopropylpiperazin-1-yl)-2-oxoethyl]-N-({1-[4-(trifluoromethyl)phenyl]cyclohexyl}methyl) imidazo[1,2-a] pyridine-5-carboxamide]",< 2000
20,"CC(C)N1CCN(C(=O)Cc2cn3c(C(=O)NCC4(c5ccc(Cl)cc5)CCCCC4)cccc3n2)CC1 [Compound 886, N-{[1-(4-chlorophenyl)cyclohexyl]methyl}-2-[2-(4-isopropylpiperazin-1-yl)-2-oxoethyl] imidazo[1,2-a] pyridine-5-carboxamide]",< 2000
21,"O=C(NCC1(c2ccc(C(F)(F)F)cc2)CCCCC1)c1cccc2nc(CC(=O)N3CCSCC3)cn12 [Compound 889, 2-(2-oxo-2-thiomorpholin-4-ylethy)-N-({1-[4-(trifluoromethyl)phenyl]cyclohexyl}methyl) imidazo[1,2-a] pyridine-5-carboxamide]",< 2000
22,"O=C(NCC1(c2cccnc2)CCCCC1)c1cccc2nc(CC(=O)N3CCSCC3)cn12 [Compound 890, 2-(2-oxo-2-thiomorpholin-4-ylethyl)-N-[(1-pyridin-3-ylcyclohexyl)methyl] imidazo[1,2-a] pyridine-5-carboxamide]",< 2000
23,"O=C(NCC1(c2ccc(Cl)cc2)CCCCC1)c1cccc2nc(CC(=O)N3CCSCC3)cn12 [Compound 891, N-{[1-(4-chlorophenyl)cyclohexyl]methyl}-2-(2-oxo-2-thiomorpholin-4-ylethyl)imidazo [1,2-a]pyridine-5-carboxamide]",< 2000
24,"CN(C)C1CCCN(C(=O)Cc2cn3c(C(=O)NCC4(c5ccc(C(F)(F)F)cc5)CCCCC4)cccc3n2)C1 (stereo not drawn) [Compound 892, 2-{2-[3-(dimethylamino)piperidin-1-yl]-2-oxoethyl}-N-({1-[4-(trifluoromethyl)phenyl]cyclohexyl}methyl) imidazo[1,2-a] pyridine-5-carboxamide]",< 2000
25,"CN(C)C1CCCN(C(=O)Cc2cn3c(C(=O)NCC4(c5cccnc5)CCCCC4)cccc3n2)C1 (stereo not drawn) [Compound 893, 2-{2-[3-(dimethylamino)piperidin-1-yl]-2-oxoethyl}-N-[(1-pyridin-3-ylcyclohexyl)methyl] imidazo[1,2-a] pyridine-5-carboxamide]",< 2000
26,"CN(C)C1CCCN(C(=O)Cc2cn3c(C(=O)NCC4(c5ccc(Cl)cc5)CCCCC4)cccc3n2)C1 (stereo not drawn) [Compound 894, N-{[1-(4-chlorophenyl)cyclohexyl]methyl}-2-{2-[3-(dimethylamino)piperidin-1-yl]-2-oxoethyl} imidazo[1,2-a] pyridine-5-carboxamide]",< 2000
27,"COC1CCN(C(=O)Cc2cn3c(C(=O)NCC4(c5ccc(C(F)(F)F)cc5)CCCCC4)cccc3n2)CC1 [Compound 896, 2-[2-(4-methoxypiperidin-1 yl)-2-oxoethyl]-N-({1-[4-(trifluoromethyl)phenyl]cyclohexyl}methyl) imidazo[1,2-a] pyridine-5-carboxamide]",< 2000
